Source: patent publication US20220096376A1, “DRUG DELIVERY PLATFORM USING W/O/W-TYPE TRIOLEIN EMULSION PROMOTIVE OF BLOOD-BRAIN BARRIER OPENING” (PUSAN NATIONAL UNIVERSITY INDUSTRY-UNIVERSITY COOPERATION …, priority 2019, published 2022)
Several values for one entry are separate records, joined by “and”; a condition that tells them apart may be missing. Equal values may be shown once.

Experiment: Confirmation of drug delivery activity to brain (doxorubicin concentration by fluorometer)
Type: in vivo
Conditions: rabbit
Experimental: A triolein emulsion having a W/O/W double structure and an average particle diameter of 7 μm was prepared in the same manner as described above. After diluting by mixing 0.2 ml (2%) of the emulsion in 10 ml of physiological saline, 7 ml of the emulsion diluted in the same procedure as in the experiment in which the trypan blue was added to 1.7 kg male rabbits distributed from Semtako and doxorubicin, a water-soluble drug, were injected, and 2 hours later, the brain of the rabbit was excised and the concentration of doxorubicin was measured using a fluorometer. At this time, three brain tissues were taken off and measured three times.

[1] = 7 ml diluted W/O/W triolein emulsion and doxorubicin injected, 2 hours later, single measurements
[2] = with W/O/W triolein emulsion, 2 hours, Average

## COc1cccc2c1C(=O)c1c(O)c3c(c(O)c1C2=O)C[C@@](O)(C(=O)CO)C[C@@H]3O[C@H]1C[C@H](N)[C@H](O)[C@H](C)O1 [Doxorubicin, doxorubicin]
[1]
  Doxorubicin concentration in the left brain (RFU): 64 RFU and 77 RFU and 89 RFU and 78 RFU and 65 RFU and 70 RFU and 53 RFU and 88 RFU
  Doxorubicin concentration in the right brain (RFU): 420 RFU and 445 RFU and 431 RFU and 444 RFU and 455 RFU and 464 RFU and 437 RFU and 428 RFU
[2]
  Doxorubicin concentration in the left brain (RFU): 73.56 RFU
  Doxorubicin concentration in the right brain (RFU): 439.11 RFU
  Right brain doxorubicin/left brain doxorubicin ratio: 6.12
